Measurements taken from PMC5568477 (Bioorganic & medicinal chemistry letters, 2017).

Each molecule was assayed against T1, olfactomedin domain of human myocilin (myoc-OLF) (Homo sapiens, UniProt Q99972) (assay: Thermal shift assay by differential scanning fluorimetry). Conditions: not given.
T1 sequence (Q99972 244-503 limits assumed): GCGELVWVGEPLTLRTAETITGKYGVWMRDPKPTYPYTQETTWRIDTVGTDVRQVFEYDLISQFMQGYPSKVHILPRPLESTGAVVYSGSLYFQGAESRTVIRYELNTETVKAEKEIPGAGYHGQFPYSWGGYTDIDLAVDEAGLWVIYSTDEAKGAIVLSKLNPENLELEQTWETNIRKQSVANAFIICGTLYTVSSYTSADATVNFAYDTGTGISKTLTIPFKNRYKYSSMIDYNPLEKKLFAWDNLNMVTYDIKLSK
Assay type: binding

| SMILES | Kd [nM] |
| --- | --- |
| Cc1cc(N(CCCl)CCCl)ccc1/C=N/NC(=O)Cc1cc(=O)oc2cc(O)ccc12 [NSC79688] | 2000 |

Same assay, conditions: initial round of screening; DSF, 5 μM protein; protein alone Tm 49.83

| Tm [°C] | SMILES |
| --- | --- |
| 51.33 | CN(C)c1ccc(/C=C/C(=O)c2cc(Cl)ccc2O)cc1 [NSC11437] |
| 50.74 | COc1cc(C(=O)C(=O)c2ccc(O)c(OC)c2)ccc1O [NSC16722] |
| 66.27 | O=C(/C=C/c1ccc(O)c(O)c1)c1ccccc1O [NSC37433] |
| 51.49 | O=C(Cn1ccc(=O)[nH]c1=O)Nc1ccc(C(=O)O)c(O)c1 [NSC93033] |
| 51.61 | Nc1nc(N)c(/N=N/c2ccc(C(=O)O)cc2)c(N)n1 [NSC408734] |
| 51.85 | O=C1c2ccccc2C(=O)C1C(c1ccc([N+](=O)[O-])cc1)C1C(=O)c2ccccc2C1=O [NSC643148] |

| SMILES | Tm [°C] |
| --- | --- |
| Cc1cc(N(CCCl)CCCl)ccc1/C=N/NC(=O)Cc1cc(=O)oc2cc(O)ccc12 [NSC79688] | 51.43 |

Same assay, conditions: second round best hit vs NSC37433

| increase in the affinity compared to the best hit from the initial round (NSC37433) | SMILES |
| --- | --- |
| ~ 10,000 fold | COc1cccc(NC(S)=Nc2ccc(O)cc2)c1 [NSC201634] |

Same assay, conditions: second round of screening, seeded with NSC37433

| Tm [°C] | SMILES |
| --- | --- |
| 57.96 | Cc1ccc(C(C)C)cc1NC(=O)Nc1ccc([N+](=O)[O-])cc1 [NSC46492] |
| 83.79 | COc1cccc(NC(S)=Nc2ccc(O)cc2)c1 [NSC201634] |

| SMILES | Tm [°C] |
| --- | --- |
| O=C(Nc1ccc(Oc2ccc(NC(=O)Nc3ccc([N+](=O)[O-])cc3)cc2)cc1)Nc1ccc([N+](=O)[O-])cc1 [NSC80735] | 62.86 |
